Test results: US10617557B2, “Combined drug delivery methods and apparatus” (ForSight Vision4, Inc., priority 2010, dated 2020)
≈ marks a conversion by molar mass, not a printed value. Where two headings read alike, the source gives them in different places.

Key:
[1] = system: COX; settings: cited from earlier work
[2] = cited from earlier work
[3] = vitreous, input of the calculation; cited from earlier work
[4] = representative of a small molecule, input of the calculation; cited from earlier work
[5] = Calculated release of COX inhibitors from the therapeutic device into the vitreous; set-up: species or system human; settings: from half-life 3 hr
[6] = system: VEGF-induced cell proliferation, or receptor binding; settings: depending on the target assay; cited from earlier work
[7] = Diffusion coefficients of proteins and small molecules; type: physicochemical; settings: simulation parameter, Tables 4A and 4E
Text: If the reservoir solution is aqueous or has a viscosity similar to water, the value for the diffusion coefficient of the therapeutic agent (TA) in water at the temperature of interest may be used.
Small molecules have a diffusion coefficient similar to fluorescein (MW=330, D=4.8 to 6 e-6 cm^2/s from Stay, M S et al. Pharm Res 2003, 20(1), pp. 96-102). For example, the small molecule may comprise a glucocorticoid such as triamcinolone acetonide having a molecular weight of about 435.

[8] = rabbit and monkey, cited from earlier work
[9] = system: Grade IV choroidal neovascularization (CNV) lesions; settings: intravitreal injection, all doses tested, cynomolgus monkeys; cited from earlier work
[10] = human eye; listed as ranibizumab; cited from earlier work

**Q.** With `Nc1c(CC(=O)O)cccc1C(=O)c1ccc(Br)cc1` [bromfenac] as the compound, how does the “IC50 (ug/ml) (Inhibitory Level)*” value [1] read?
**A.** Its value is 0.0025 µg/mL (≈ 0.00748 µM).

**Q.** With `Cc1ccc(-c2cc(C(F)(F)F)nn2-c2ccc(S(N)(=O)=O)cc2)cc1` [celecoxib] as the compound, how does the Solubility in water [2] read?
**A.** Its Solubility in water is “approximately 3 ug/ml”.

**Q.** Which results are given for `O=C(c1ccccc1)c1ccc2n1CCC2C(=O)O` (stereo not drawn) [ketorolac]?
**A.** Half-life [3]: 3 h; IC50 (ug/ml) (Inhibitory Level)* [1]: 0.007 µg/mL (≈ 0.0274 µM); Diffusion coeff [4]: 5.0E−06 cm2/s; Rate constant, k [5]: 5.545 day⁻¹

**Q.** Which IC50 [6] does the source give for `C[C@]12C=CC(=O)C=C1CC[C@H]1[C@@H]3C[C@@H](O)[C@](O)(C(=O)CO)[C@@]3(C)C[C@H](O)[C@@]12F` [triamcinolone] here?
**A.** Its IC50 is ~1.5 nM.

**Q.** Which results are given for ranibizumab [Lucentis™]?
**A.** Diffusion coeff [7]: 1.0E−06 cm2/s; Half-life in the vitreous [8]: two to four; Half-life in the vitreous ([8]; listed as ranibizumab): approximately 3 days; Development of Grade IV CNV lesions [9]: completely inhibited; Half-life in the vitreous [10]: 220 h
